In patent publication US10106601B2, “Inhibition of PLGF to treat philadelphia chromosome positive leukemia” (VIB VZW, priority 2008, dated 2018):
“Also recorded” adds a separate entry of the source.

B1: PIGF: murine recombinant placental growth factor from R&D Systems, used at 50 ng/ml (protein, UniProt P49764 19-158, looked up)
Placenta growth factor: VHSQGALSAGNNSTEVEVVPFNEVWGRSYCRPMEKLVYILDEYPDEVSHIFSPSCVLLSRCSGCCGDEGLHCVPIKTANITMQILKIPPNRDPHFYVEMTFSQDVLCECRPILETTKAERRKTKGKRKRSRNSQTEEPHP

What was measured:
PIGF = PIGF levels in PB of CML patients treated with Imatinib; type: in vivo, human
murine BMDSCs = assay: PIGF secretion by stromal cells incubated with imatinib; type: cell-based; settings: increasing concentrations of imatinib
Experimental: For isolation of BMDSCs, the bone marrow from femurs and tibias was flushed, the erythrocytes eliminated with lysis buffer (150 mM NH4Cl, 0.1 mM EDTA, 10 mM KHCO3, pH 7.4) and subsequently the cells were cultured in DMEM medium supplemented with 15% FCS. After 24 hours, the non-adherent cell fraction was removed, and the adherent cells were further cultured and expanded for 3 weeks.
Concentrations of PIGF or VEGF were quantified in cell culture supernatants, peripheral blood plasma and bone marrow plasma using “Quantikine” mouse PIGF and mouse VEGF immunoassays (R&D Systems). Concentrations were expressed as pg/ml/10^5 cells or as pg/ml.

Bv-173 and KCL-22 cells = assay: Western Blots of ABL phosphorylation with and without PIGF; type: cell-based, human; settings: cells incubated with and without PIGF; data not shown
Experimental: In order to elucidate, whether PIGF induces changes in ABL phosphorylation of BCR/ABL^+ leukemia cells, we performed Western Blots of Bv-173 and KCL-22 cells that were incubated with and without PIGF.

BCR/ABL+ cell lines = assay: Induction of proliferation of leukemia cells by recombinant PIGF; type: cell-based, human and murine; settings: in vitro
Experimental: Proliferation of leukemia cells and BMDSCs was analyzed by using MTT assays or by manual counting with a hemocytometer. Murine recombinant PIGF and anti-VEGFR-1 were obtained from R&D Systems. Anti-PIGF and control IgG1 were produced by Thrombogenics and Biolnvent and characterized as described (Fischer et al., 2007). PIGF was used at a concentration of 50 ng/ml and the antibodies in 100-fold molar excess, unless stated otherwise. For co-culture experiments, 10^5 BMDSCs were co-cultured for 48 hours with 4×10^5 leukemia cells alone or in presence of the respective antibodies in serum-free medium. Subsequently, numbers of adherent BMDSCs and non-adherent leukemia cells were determined and supernatants were harvested for analyses of PIGF and VEGF protein.

Molecule	PIGF levels in PB (PIGF; patients with BCR/ABL/ABL ratio <1)	PIGF levels in PB (PIGF; patients with complete molecular remission (CMR) vs healthy subjects)	PIGF secretion by BMDSCs (murine BMDSCs)	phosphorylation of ABL (Bv-173 and KCL-22 cells)	induction of proliferation of leukemia cells by PIGF (BCR/ABL+ cell lines)
Cc1ccc(NC(=O)c2ccc(CN3CCN(C)CC3)cc2)cc1Nc1nccc(-c2cccnc2)n1 [imatinib]	elevated to similar levels as in untreated, newly diagnosed CML patients	significantly higher	dose-dependent induction of PIGF	–	–
B1	–	–	–	did not modify phosphorylation of ABL	dose dependently induced proliferation; also recorded: dose-dependent induction of proliferation
